The text below walks through data of US5665704A, “Receptor specific atrial natriuretic peptides” (Genentech, Inc., priority 1995, dated 1997).

One may read the IC50 as the point on the concentration scale where inhibition reaches its midpoint.

Bridge positions count the residues as written; N and C are the ends. Square brackets hold non-standard residues; d marks the D form. Peptide text beside a SMILES is read from it. ξ: configuration not given here. ξPhg = NC(C(=O)O)c1ccccc1; Mpa = O=C(O)CCS

One experiment deals with T1, hNPR-A (Homo sapiens, UniProt P16066).
T1 sequence (P16066 33-1061): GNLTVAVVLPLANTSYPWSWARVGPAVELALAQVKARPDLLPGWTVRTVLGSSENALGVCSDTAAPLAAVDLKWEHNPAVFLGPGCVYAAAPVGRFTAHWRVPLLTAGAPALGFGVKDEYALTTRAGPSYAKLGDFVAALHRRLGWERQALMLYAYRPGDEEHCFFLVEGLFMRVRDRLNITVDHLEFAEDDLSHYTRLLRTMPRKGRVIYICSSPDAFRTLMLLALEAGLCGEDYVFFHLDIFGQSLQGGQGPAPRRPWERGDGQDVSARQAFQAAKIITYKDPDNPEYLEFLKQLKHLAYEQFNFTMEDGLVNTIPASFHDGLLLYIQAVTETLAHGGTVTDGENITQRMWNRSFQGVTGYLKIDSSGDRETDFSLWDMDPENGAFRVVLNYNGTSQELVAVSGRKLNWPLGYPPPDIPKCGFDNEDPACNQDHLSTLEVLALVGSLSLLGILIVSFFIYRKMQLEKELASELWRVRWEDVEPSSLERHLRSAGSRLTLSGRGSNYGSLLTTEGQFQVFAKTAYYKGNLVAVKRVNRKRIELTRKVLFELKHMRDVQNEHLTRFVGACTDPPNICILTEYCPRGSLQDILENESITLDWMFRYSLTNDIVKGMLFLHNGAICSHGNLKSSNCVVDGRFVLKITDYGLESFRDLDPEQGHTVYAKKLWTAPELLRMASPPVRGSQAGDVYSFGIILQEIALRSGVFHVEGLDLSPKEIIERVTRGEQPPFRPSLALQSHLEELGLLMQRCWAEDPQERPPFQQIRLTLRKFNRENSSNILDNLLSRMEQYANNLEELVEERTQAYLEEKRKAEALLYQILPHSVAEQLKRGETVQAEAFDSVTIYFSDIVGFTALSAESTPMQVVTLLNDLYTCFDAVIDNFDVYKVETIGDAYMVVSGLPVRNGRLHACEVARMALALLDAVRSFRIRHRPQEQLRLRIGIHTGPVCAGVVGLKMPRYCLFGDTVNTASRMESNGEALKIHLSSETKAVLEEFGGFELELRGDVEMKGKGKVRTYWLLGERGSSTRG
Description: Binding affinity for hNPR-A (competitive displacement of I^125 labeled wild-type ANF). As to conditions: Table I; read-out: Binding Affinity IC50 (pM) hNPR-A.

The next experiment has as its target T2, hNPR-C (Homo sapiens, UniProt P17342).
T2 sequence (P17342 27-541): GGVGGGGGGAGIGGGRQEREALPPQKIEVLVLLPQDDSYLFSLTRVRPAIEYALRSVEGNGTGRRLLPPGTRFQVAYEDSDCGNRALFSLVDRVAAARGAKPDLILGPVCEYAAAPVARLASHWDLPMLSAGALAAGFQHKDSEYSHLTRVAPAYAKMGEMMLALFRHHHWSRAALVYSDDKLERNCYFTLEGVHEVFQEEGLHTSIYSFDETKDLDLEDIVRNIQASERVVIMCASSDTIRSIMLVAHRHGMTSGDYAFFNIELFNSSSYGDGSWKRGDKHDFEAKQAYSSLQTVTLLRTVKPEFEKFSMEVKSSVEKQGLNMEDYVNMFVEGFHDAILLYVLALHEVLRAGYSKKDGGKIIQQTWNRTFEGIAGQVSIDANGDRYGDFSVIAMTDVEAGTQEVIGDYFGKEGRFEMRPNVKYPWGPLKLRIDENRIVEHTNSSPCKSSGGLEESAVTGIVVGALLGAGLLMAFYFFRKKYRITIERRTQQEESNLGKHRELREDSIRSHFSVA
In words: Binding affinity for clearance receptor hNPR-C. Conditions: Table I; read-out: Binding Affinity IC50 (pM) hNPR-C. From the text:
For assay systems to measure binding of hANF and the compounds of this invention to hNPR-C see: Schank, D. B., et al., Biochem. Biophys. Res. Comm. 127:433-442 (1985); Scarborough, R. M., J. Biol. Chem. 261:12960-12964 and WO 90/01940.

As for `CC[C@H](C)[C@@H]1NC(=O)[C@H](CCCNC(=N)N)NC(=O)[C@H](CC(=O)O)NC(=O)[C@H]([C@@H](C)CC)NC(=O)[C@H](CO)NC(=O)CNC(=O)[C@H]([C@@H](C)O)NC(=O)[C@H](Cc2ccccc2)NC[C@@H](NC(=O)[C@H](CO)NC(=O)[C@H](CO)NC(=O)[C@H](CCCNC(=N)N)NC(=O)[C@H](CCCNC(=N)N)NC(=O)[C@H](CC(C)C)NC(=O)[C@@H](N)CO)CSSC[C@@H](C(=O)N[C@@H](CC(N)=O)C(=O)N[C@@H](CO)C(=O)N[C@@H](Cc2ccccc2)C(=O)N[C@@H](CCCNC(=N)N)C(=O)N[C@@H](Cc2ccc(O)cc2)C(=O)O)NC(=O)CNC(=O)[C@H](CC(C)C)NC(=O)CNC(=O)[C@H](CO)NC(=O)[C@H](CCC(N)=O)NC(=O)[C@H](C)NC(=O)[C@H](CCCNC(=N)N)NC1=O` [ANF84], the IC50 came out at 21 pM at hNPR-A and 1.9e+07 pM at hNPR-C.

On to `CC[C@H](C)[C@@H]1NC(=O)[C@H](CCCNC(=N)N)NC(=O)[C@H](CC(=O)O)NC(=O)[C@H]([C@@H](C)CC)NC(=O)[C@H](CO)NC(=O)CNC(=O)[C@H]([C@@H](C)O)NC(=O)[C@H](Cc2ccccc2)NC(=O)[C@@H](NC(=O)[C@H](CO)NC(=O)[C@H](CO)NC(=O)[C@H](CCCNC(=N)N)NC(=O)[C@H](CCCNC(=N)N)NC(=O)[C@H](CC(C)C)NC(=O)[C@@H](N)CO)CSSC[C@@H](C(=O)N[C@@H](CC(N)=O)C(=O)N[C@@H](CO)C(=O)N[C@@H](Cc2ccccc2)C(=O)N[C@@H](CCCNC(=N)N)C(=O)N[C@@H](Cc2ccc(O)cc2)C(=O)O)NC(=O)CNC(=O)[C@H](CC(C)C)NC(=O)CNC(=O)[C@H](CO)NC(=O)[C@@H]2CCCN2C(=O)[C@H](C)NC(=O)[C@H](CCCNC(=N)N)NC1=O` [ANF31] (H-SLRRSSCFTGSIDRIRAPSGLGCNSFRY-OH; disulfide 7-23), for which the values for the IC50 at hNPR-A and at hNPR-C were 52 pM and 3.21e+06 pM, respectively.

Turning to `CC[C@H](C)[C@@H]1NC(=O)[C@H](CCCNC(=N)N)NC(=O)[C@H](CC(=O)O)NC(=O)[C@H](CCSC)NC(=O)[C@@H]2CCCN2C(=O)[C@H](CCCNC(=N)N)NC(=O)[C@H](CCC(=O)O)NC(=O)[C@H](Cc2ccccc2)NC(=O)[C@@H](NC(=O)[C@H](CO)NC(=O)[C@H](CO)NC(=O)[C@H](CCCNC(=N)N)NC(=O)[C@H](CCCNC(=N)N)NC(=O)[C@H](CC(C)C)NC(=O)[C@@H](N)CO)CSSC[C@@H](C(=O)N[C@@H](CC(N)=O)C(=O)N[C@@H](CO)C(=O)N[C@@H](Cc2ccccc2)C(=O)N[C@@H](CCCNC(=N)N)C(=O)N[C@@H](Cc2ccc(O)cc2)C(=O)O)NC(=O)CNC(=O)[C@H](CC(C)C)NC(=O)CNC(=O)[C@H](CO)NC(=O)[C@H](CCC(N)=O)NC(=O)[C@H](C)NC(=O)CNC1=O` [ANF51] (H-SLRRSSCFERPMDRIGAQSGLGCNSFRY-OH; disulfide 7-23), the results for the IC50 at hNPR-A and on hNPR-C were 4550 pM and 32200 pM, respectively.

For the molecule `CC[C@H](C)[C@@H]1NC(=O)[C@H](CCCNC(=N)N)NC(=O)[C@H](CC(=O)O)NC(=O)[C@H]([C@@H](C)CC)NC(=O)[C@H](CO)NC(=O)CNC(=O)[C@H]([C@@H](C)O)NC(=O)[C@H](Cc2ccccc2)NC(=O)[C@@H](C)NC(=O)[C@@H](NC(=O)[C@H](CO)NC(=O)[C@H](CO)NC(=O)[C@H](CCCNC(=N)N)NC(=O)[C@H](CCCNC(=N)N)NC(=O)[C@H](CC(C)C)NC(=O)[C@@H](N)CO)CSSC[C@@H](C(=O)N[C@@H](CC(N)=O)C(=O)N[C@@H](CO)C(=O)N[C@@H](Cc2ccccc2)C(=O)N[C@@H](CCCNC(=N)N)C(=O)N[C@@H](Cc2ccc(O)cc2)C(=O)O)NC(=O)CNC(=O)[C@H](CC(C)C)NC(=O)CNC(=O)[C@H](CO)NC(=O)[C@H](CCC(N)=O)NC(=O)[C@H](C)NC(=O)[C@H](CCCNC(=N)N)NC1=O` [ANF75] (H-SLRRSSC[dA]FTGSIDRIRAQSGLGCNSFRY-OH; disulfide 7-24), the results for the concentration for half-maximal inhibition (IC50) on hNPR-A and at hNPR-C were 2080 pM and 2e+06 pM, respectively.

On to `CC[C@H](C)[C@@H]1NC(=O)[C@H](CO)NC(=O)[C@H](CC(=O)O)NC(=O)[C@H]([C@@H](C)CC)NC(=O)[C@H](CCCNC(=N)N)NC(=O)CNC(=O)CNC(=O)[C@H](Cc2ccccc2)NC(=O)[C@@H](NC(=O)[C@H](CO)NC(=O)[C@H](CO)NC(=O)[C@H](CCCNC(=N)N)NC(=O)[C@H](CCCNC(=N)N)NC(=O)[C@H](CC(C)C)NC(=O)[C@@H](N)CO)CSSC[C@@H](C(=O)N[C@@H](CC(N)=O)C(=O)N[C@@H](CO)C(=O)N[C@@H](Cc2ccccc2)C(=O)N[C@@H](CCCNC(=N)N)C(=O)N[C@@H](Cc2ccc(O)cc2)C(=O)O)NC(=O)CNC(=O)[C@H](CC(C)C)NC(=O)CNC(=O)[C@H](CO)NC(=O)[C@H](CCC(N)=O)NC(=O)[C@H](C)NC(=O)[C@H](CCCNC(=N)N)NC1=O` [ANF25] (H-SLRRSSCFGGRIDSIRAQSGLGCNSFRY-OH; disulfide 7-23), for which the IC50 at hNPR-A came to 56 pM; on hNPR-C, 3310 pM.

With `CC[C@H](C)[C@@H]1NC(=O)[C@H](CCCNC(=N)N)NC(=O)[C@H](CC(=O)O)NC(=O)[C@H]([C@@H](C)CC)NC(=O)[C@H](CO)NC(=O)CNC(=O)[C@@H](C)NC(=O)[C@H](Cc2ccccc2)NC(=O)CCSSC[C@@H](C(=O)N[C@@H](CC(N)=O)C(=O)N[C@@H](CO)C(=O)N[C@@H](Cc2ccccc2)C(=O)N[C@@H](CCCNC(=N)N)C(=O)N[C@@H](Cc2ccc(O)cc2)C(=O)O)NC(=O)CNC(=O)[C@H](CC(C)C)NC(=O)CNC(=O)[C@H](CO)NC(=O)[C@H](CCC(N)=O)NC(=O)[C@H](C)NC(=O)[C@H](CCCNC(=N)N)NC1=O` [ANF81] ([Mpa]F[dA]GSIDRIRAQSGLGCNSFRY-OH; disulfide 1-17), the values for the IC50 on hNPR-A and at hNPR-C were 1400 pM and 3.86e+06 pM, respectively.

In the case of `CC[C@H](C)[C@@H]1NC(=O)[C@H](CCCNC(=N)N)NC(=O)[C@H](CC(=O)O)NC(=O)[C@H]([C@@H](C)CC)NC(=O)[C@H](CO)NC(=O)CNC(=O)[C@H]([C@@H](C)O)NC(=O)C(c2ccccc2)NC(=O)[C@@H](NC(=O)[C@H](CO)NC(=O)[C@H](CO)NC(=O)[C@H](CCCNC(=N)N)NC(=O)[C@H](CCCNC(=N)N)NC(=O)[C@H](CC(C)C)NC(=O)[C@@H](N)CO)CSSC[C@@H](C(=O)N[C@@H](CC(N)=O)C(=O)N[C@@H](CO)C(=O)N[C@@H](Cc2ccccc2)C(=O)N[C@@H](CCCNC(=N)N)C(=O)N[C@@H](Cc2ccc(O)cc2)C(=O)O)NC(=O)CNC(=O)[C@H](CC(C)C)NC(=O)CNC(=O)[C@H](CO)NC(=O)[C@H](CCC(N)=O)NC(=O)[C@H](C)NC(=O)[C@H](CCCNC(=N)N)NC1=O` (stereo partly shown) [ANF100-1] (H-SLRRSSC[ξPhg]TGSIDRIRAQSGLGCNSFRY-OH; disulfide 7-23), the IC50 turned out to be 187 pM at hNPR-A and 3.23e+06 pM on hNPR-C.

For `CC[C@H](C)[C@@H]1NC(=O)[C@H](CCCNC(=N)N)NC(=O)[C@H](CC(=O)O)NC(=O)[C@H]([C@@H](C)CC)NC(=O)[C@H](CC(=O)O)NC(=O)CNC(=O)[C@@H](C)NC(=O)[C@H](Cc2ccccc2)NC(=O)[C@@H](NC(=O)[C@H](CO)NC(=O)[C@H](CO)NC(=O)[C@H](CCCNC(=N)N)NC(=O)[C@H](CCCNC(=N)N)NC(=O)[C@H](CC(C)C)NC(=O)[C@@H](N)CO)CSSC[C@@H](C(=O)N[C@@H](CC(N)=O)C(=O)N[C@@H](CO)C(=O)N[C@@H](Cc2ccccc2)C(=O)N[C@@H](CCCNC(=N)N)C(=O)N[C@@H](Cc2ccc(O)cc2)C(=O)O)NC(=O)CNC(=O)[C@H](CC(C)C)NC(=O)CNC(=O)[C@H](CO)NC(=O)[C@H](CCC(N)=O)NC(=O)[C@H](C)NC(=O)[C@H](CCCNC(=N)N)NC1=O` [ANF90] (H-SLRRSSCF[dA]GDIDRIRAQSGLGCNSFRY-OH; disulfide 7-23), the IC50 amounted to 1200 pM at hNPR-A and 6.14e+06 pM at hNPR-C.
